From paper PMC8348901, “Novel N-Substituted 3-Aryl-4-(diethoxyphosphoryl)azetidin-2-ones as Antibiotic Enhancers and Antiviral Agents in Search for a Successful Treatment of Complex Infections” (International Journal of Molecular Sciences, 2021)
Read-outs that look alike come from different tables or passages of the source.

Key:
[1] = system: Capan-1 (pancreatic adenocarcinoma); assay: Cytostatic activity (cell proliferation); assay type: cell-based
Procedure: (§1) The 50% cytostatic inhibitory concentration (IC50) causing a 50% decrease in cell proliferation was determined for all obtained compounds toward 9 cancerous cell lines, i.e.,: Capan-1 (pancreatic adenocarcinoma), Hap1 (chronic myeloid leukemia), HCT-116 (colorectal carcinoma), NCI-H460 (lung carcinoma), DND-41 (acute lymphoblastic leukemia), HL-60 (acute myeloid leukemia), K-562 (chronic myeloid leukemia), MM.1S (multiple myeloma), Z-138 non-Hodgkin lymphoma), as well as normal retina (non-cancerous) cells (hTERT RPE-1).
(§2) All assays were performed in 96-well microtiter plates. To each well was added (5–7.5) × 10^4 tumor cells and a given amount of the tested compound. The cells were allowed to proliferate at 37 °C in a humidified, CO2-controlled atmosphere. At the end of the incubation period, the cells were counted in a Coulter counter.

[2] = system: influenza A virus H1N1 subtype; assay: Antiviral assay, influenza A virus H1N1 subtype in MDCK cells; assay type: cell-based, influenza A virus H1N1 (A/PR/8)
[3] = system: MRSA HEMSA 5; assay: Oxacillin MIC reduction (adjuvant) microdilution assay; assay type: cell-based, Staphylococcus aureus; conditions: for Activity Gain [A]: MIC(OXA)/MIC(OXA+Cpd), compound 0.5 mM, adjuvant activity if A ≥ 4
Procedure: (§3) Since the lack of direct antibacterial activity of the obtained azetidinones was observed, all isomers trans and cis were investigated on their “adjuvant” properties, i.e., an ability to enhance the effectiveness of antibiotics against S. aureus strains. Thus, the compounds were tested in combination with the known β-lactam antibiotic, oxacillin, in the microdilution assays. The ability of the tested azetidinones to reduce minimum inhibitory concentration (MIC) of oxacillin against both, the referenced and the resistant S. aureus strains, was assessed.
(§4) The in-vitro antibacterial property and the capacity of tested compounds to increase the efficacy of antibiotics were evaluated in two Staphylococcus aureus strains, i.e., the reference clonal complex 5 (CC5) methicillin-susceptible (MSSA) strain ATCC 25923, and the methicillin-resistant (MRSA) extensively drug-resistant (XDR) clinical isolate HEMSA-5 [46].
(§5) In order to assess the increase of antibiotic efficacy, the assays were conducted by determining if/to what extent the investigated compounds reduce MICs of oxacillin by means of a serial dilution broth microplate method, in accordance with the CLSI requirements. The concentrations of compounds used in the MICs reduction assay were no greater than 1/4 of their respective MICs to ensure that cell viability was not affected by the intrinsic antibacterial activity of the molecules. Serial two-fold dilutions of oxacillin (Sigma-Aldrich; St. Louis, MI, USA, cat. no. 28221), were prepared in […] of the Mueller–Hinton broth (Merck; Darmstadt, Germany, cat. no. 1102930500). Suitable concentrations of the compounds (total volume […]) were then added. Bacterial suspensions were diluted to OD ¼ 0.5. The resulting suspensions were then diluted 1:100 and added in the volume of […] into the oxacillin serial dilutions with the compounds. The results were read after 20-h incubation at 37 °C.
(§6) The ability of compounds to improve antibiotic efficacy was expressed as the activity gain [A] parameter calculated according to the formula given in Figure 10.
(§7) Figure 10 Activity gain. MICAnt corresponds to the MIC of oxacillin in the absence of a compound tested and MICAnt + Comp refers to the MIC of oxacillin paired with a compound tested.

[4] = system: S. aureus ATCC 25923; assay: as above; assay type: cell-based, Staphylococcus aureus; conditions: for Activity Gain [A]: MIC(OXA)/MIC(OXA+Cpd), compound 0.5 mM, adjuvant activity if A ≥ 4
Procedure: as §3, §4, §5, §6, §7

[5] = system: Madin Darby canine kidney cells (MDCK); conditions: microscopically detectable alteration of cell morphology
[6] = in vitro; conditions: dog
[7] = system: DND-41 (acute lymphoblastic leukemia); assay: Cytostatic activity (cell proliferation); assay type: cell-based
Procedure: as §1, with “RPE-1). Docetaxel, etoposide and stauroporine were used as the reference compounds.” for “RPE-1).”
as §2, with “counter. The IC50 (50% inhibitory concentration) was defined as the concentration of the compound that inhibited cell proliferation by 50%.” for “counter.”

[8] = system: NCI-H460 (lung carcinoma); assay: Cytostatic activity (cell proliferation); assay type: cell-based
Procedure: as §1, with “RPE-1). Docetaxel, etoposide and stauroporine were used as the reference compounds.” for “RPE-1).”
as §2, with “counter. The IC50 (50% inhibitory concentration) was defined as the concentration of the compound that inhibited cell proliferation by 50%.” for “counter.”

[9] = system: Hap1 (chronic myeloid leukemia); assay: Cytostatic activity (cell proliferation); assay type: cell-based
Procedure: as §1, with “RPE-1). Docetaxel, etoposide and stauroporine were used as the reference compounds.” for “RPE-1).”
as §2, with “counter. The IC50 (50% inhibitory concentration) was defined as the concentration of the compound that inhibited cell proliferation by 50%.” for “counter.”

[10] = system: hTERT RPE-1 normal retina (non-cancerous) cells; assay: Cytostatic activity (cell proliferation); assay type: cell-based
Procedure: as §1, with “RPE-1). Docetaxel, etoposide and stauroporine were used as the reference compounds.” for “RPE-1).”
as §2, with “counter. The IC50 (50% inhibitory concentration) was defined as the concentration of the compound that inhibited cell proliferation by 50%.” for “counter.”

[11] = system: HCT-116 (colorectal carcinoma); assay: Cytostatic activity (cell proliferation); assay type: cell-based
Procedure: as §1, with “RPE-1). Docetaxel, etoposide and stauroporine were used as the reference compounds.” for “RPE-1).”
as §2, with “counter. The IC50 (50% inhibitory concentration) was defined as the concentration of the compound that inhibited cell proliferation by 50%.” for “counter.”

[12] = system: human coronavirus (229E); assay: microbe, parasite or virus in culture; assay type: cell-based
[13] = system: cytomegalovirus AD-169 strain; assay: Antiviral CPE reduction assay, cytomegalovirus AD-169 strain in HEL cells; assay type: cell-based, human cytomegalovirus (HCMV); conditions: Human betaherpesvirus 5, AD169
[14] = system: human embryonic lung (HEL) cells; conditions: uninfected host cells of the coronavirus/cytomegalovirus assays
[15] = H1N1, MDCK cells, visual CPE score, read-out: EC50 by visual CPE score, influenza A virus H1N1
[16] = H1N1, MDCK, read-out: EC50 by TMS score, influenza A virus H1N1
[17] = oxacillin MIC in presence of 0.5 mM compound

Row | SMILES | IC50 ([1]; Homo sapiens, CAPAN-1) | Activity Gain [A] [3] | Activity Gain [A] [4] | IC50 ([7]; DND41) | IC50 ([8]; Homo sapiens, NCI-H460) | IC50 ([9]; Homo sapiens, HAP1) | IC50 ([10]; hTERT-RPE1) | IC50 ([11]; Homo sapiens, HCT-116) | also measured
1 | CCOP(=O)(OCC)[C@@H]1[C@H](c2ccc(F)c(C)c2)C(=O)N1Cc1ccccc1 (relative stereo) [cis-11f, cis-N-benzyl-3-(4-fluoro-3-methylphenyl)-4-(diethoxyphosphoryl)azetidin-2-one] | 38.4 µM | 1–2 | <0.5 | > 100 µM | 53.6 µM | > 100 µM | > 100 µM | > 100 µM | EC50 [2, 15]: 12 µM; EC50 [2, 16]: 8.3 µM; MCC (minimum cytotoxic concentration) [5]: > 100 µM; CC50 [6]: 39.9 µM
2 | CCOP(=O)(OCC)[C@H]1[C@H](c2ccc(F)c(C)c2)C(=O)N1Cc1ccccc1 (relative stereo) [trans-11f, trans-N-benzyl-3-(4-fluoro-3-methylphenyl)-4-(diethoxyphosphoryl)azetidin-2-one] | 34.8 µM | 16 | 0.5 | 65.8 µM | 37 µM | 46.5 µM | 33.5 µM | 35.3 µM | Activity against human coronavirus (229E) relative to ribavirin [12]: ~2.5 fold; EC50 ([12]; Human coronavirus 229E, HEL cells, reduction of virus-induced cytopathogenicity by 50%): 45 µM; EC50 [13]: 54.7 µM; Effect on normal cell morphology [14]: did not affect normal cell morphology
3 | Nc1ccn(C[C@@H](CO)OCP(=O)(O)O)c(=O)n1 [cidofovir] |  |  |  |  |  |  |  |  | EC50 [13]: 0.67 µM
4 | CCOP(=O)(OCC)[C@H]1[C@H](c2cccc(F)c2)C(=O)N1C (relative stereo) [trans-10c, trans-N-methyl-3-(3-fluorophenyl)-4-(diethoxyphosphoryl)azetidin-2-one] | 19.6 µM | 1 | 0.5 | > 100 µM | 62.8 µM | 69.1 µM | > 100 µM | > 100 µM | 
5 | CCOP(=O)(OCC)[C@H]1[C@H](c2ccccc2F)C(=O)N1C (relative stereo) [trans-10b, trans-N-methyl-3-(2-fluorophenyl)-4-(diethoxyphosphoryl)azetidin-2-one] | 53.1 µM | 1 | 0.5 | > 100 µM | 34.8 µM | 38.7 µM | > 100 µM | 44.1 µM | 
6 | CCOP(=O)(OCC)[C@@H]1[C@H](c2ccccc2)C(=O)N1C (relative stereo) [cis-10a, cis-N-methyl-3-phenyl-4-(diethoxyphosphoryl)azetidin-2-one] |  | 1–2 | 0.5 |  |  |  |  |  | IC50 [1]: 37.8 µM; OXA+ Cpd MIC [3, 17]: 256 to 512 µg/mL; OXA+ Cpd MIC [4, 17]: 1 µg/mL; IC50 [7]: > 100 µM; IC50 [8]: > 100 µM; IC50 [9]: 46.3 µM; IC50 [10]: > 100 µM; IC50 [11]: > 100 µM
7 | NC(=O)c1ncn([C@@H]2O[C@H](CO)[C@@H](O)[C@H]2O)n1 [ribavirin, reference compound] |  |  |  |  |  |  |  |  | EC50 [2, 15]: 8.9 µM; EC50 [2, 16]: 6.6 µM; CC50 [6]: ≥ 100 µM
8 | CCOP(=O)(OCC)[C@H]1[C@H](c2ccc(F)cc2F)C(=O)N1Cc1ccccc1 (relative stereo) [trans-11e, trans-N-benzyl-3-(2,4-difluorophenyl)-4-(diethoxyphosphoryl)azetidin-2-one] | 36.5 µM | 1 | 0.5 | > 100 µM | 24.4 µM | 42.9 µM | 25.6 µM | 36.6 µM | 
9 | CCOP(=O)(OCC)[C@H]1[C@H](c2ccc(F)cc2F)C(=O)N1C (relative stereo) [trans-10e, trans-N-methyl-3-(2,4-difluorophenyl)-4-(diethoxyphosphoryl)azetidin-2-one] | 51.7 µM | 1 | <0.5 | > 100 µM | 67.6 µM | 51.7 µM | > 100 µM | > 100 µM | 
10 | Nc1nc(O)c2ncn(COC(CO)CO)c2n1 [ganciclovir] |  |  |  |  |  |  |  |  | EC50 [13]: 3.15 µM
11 | CCOP(=O)(OCC)[C@@H]1[C@H](c2ccccc2F)C(=O)N1Cc1ccccc1 (relative stereo) [cis-11b, cis-N-benzyl-3-(2-fluorophenyl)-4-(diethoxyphosphoryl)azetidin-2-one] | 53 µM | 1 | 1 | > 100 µM | 72.8 µM | > 100 µM | > 100 µM | 74.1 µM | 
12 | CCOP(=O)(OCC)[C@H]1[C@H](c2ccc(F)cc2)C(=O)N1Cc1ccccc1 (relative stereo) [trans-11d, trans-N-benzyl-3-(4-fluorophenyl)-4-(diethoxyphosphoryl)azetidin-2-one] | 35.8 µM | 2 | 0.5 | > 100 µM | 28.4 µM | 48.3 µM | 73 µM | 44.3 µM | 
13 | CCOP(=O)(OCC)[C@H]1[C@H](c2ccc(F)cc2)C(=O)N1C (relative stereo) [trans-10d, trans-N-methyl-3-(4-fluorophenyl)-4-(diethoxyphosphoryl)azetidin-2-one] | 45.7 µM | 1 | 0.5 | > 100 µM | 41.3 µM | 58.1 µM | > 100 µM | > 100 µM | 
